Measured values published in publication PMC9926234, “Iterative computational design and crystallographic screening identifies potent inhibitors targeting the Nsp3 macrodomain of SARS-CoV-2” (Proceedings of the National Academy of Sciences of the …, 2023).
Values joined by “and” are separate entries in the source; they are usually repeats but may differ in a detail not shown here. Identical values can stand only once. Like-named read-outs stand apart in the source and are kept apart here.

Tests used:
SARS-CoV-2 NSP3 Mac1 [1] = biological target: T1, SARS-CoV-2 NSP3 Mac1 (Severe acute respiratory syndrome coronavirus 2, UniProt P0DTD1); set-up: contains a conserved macrodomain enzyme (Mac1); Differential scanning fluorimetry of Mac1, maximum thermal upshift; details: maximum shift over tested concentrations; binder
TARG1 = biological target: T2, TARG1 (Homo sapiens, UniProt Q9Y530); assay: adapted HTRF-based peptide displacement assay (off-target); type: binding
T2 construct: Targ1_HTRF; HTRF assay; pET22b(+); His6, TEV; 1-153; made in house
T2 sequence (Q9Y530 with tags, fused parts or gaps): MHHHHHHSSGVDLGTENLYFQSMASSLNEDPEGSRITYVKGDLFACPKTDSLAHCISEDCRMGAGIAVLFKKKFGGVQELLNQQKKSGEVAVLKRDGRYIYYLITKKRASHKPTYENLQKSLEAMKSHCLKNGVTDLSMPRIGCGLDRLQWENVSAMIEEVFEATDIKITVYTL

MacroD2 = biological target: T3, MacroD2 (Homo sapiens, UniProt A1Z1Q3); assay: as above; type: binding
T3 construct: MacroD2_HTRF; HTRF assay; pET22b(+); His6, TEV, Avi; made in house
T3 sequence (A1Z1Q3 with tags, fused parts or gaps): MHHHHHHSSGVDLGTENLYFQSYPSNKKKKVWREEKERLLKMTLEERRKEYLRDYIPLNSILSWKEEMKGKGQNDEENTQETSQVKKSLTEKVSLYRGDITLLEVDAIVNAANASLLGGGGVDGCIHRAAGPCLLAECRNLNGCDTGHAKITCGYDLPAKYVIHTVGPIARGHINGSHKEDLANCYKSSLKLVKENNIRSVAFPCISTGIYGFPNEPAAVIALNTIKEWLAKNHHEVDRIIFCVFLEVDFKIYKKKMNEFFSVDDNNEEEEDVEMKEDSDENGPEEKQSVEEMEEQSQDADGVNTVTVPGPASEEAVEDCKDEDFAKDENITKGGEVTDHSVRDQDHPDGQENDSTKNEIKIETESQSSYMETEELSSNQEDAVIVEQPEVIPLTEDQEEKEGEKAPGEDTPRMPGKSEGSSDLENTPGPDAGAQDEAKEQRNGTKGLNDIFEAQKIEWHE

SARS-CoV-2 NSP3 Mac1 [2] = biological target: T1, SARS-CoV-2 NSP3 Mac1; type: binding; details: for 1-BDC / 1-BDC (PanDDA): PanDDA event map, 1 minus background density correction; for 1-BDC / Refined occupancy / 1-BDC (PanDDA): crystal soaking of Mac1; for Refined occupancy: ligand occupancy after refinement (phenix.refine); for HIT*: true hit = binding in crystallographic soaking or the HTRF-based binding assay; for Modeled?: ligand modeled from this dataset, compound concentration 100 mM
SARS-CoV-2 NSP3 Mac1 [3] = biological target: T1, SARS-CoV-2 NSP3 Mac1; type: binding; set-up: contains a conserved macrodomain enzyme (Mac1); details: for Spearman est (compound concentration vs apparent Tm): DSF dose responsiveness, 1 µM nsp3 mac1, adj p given; for DSF max dTma: maximal thermal upshift
Procedure, shortened: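 ΔTma values are thermal shifts relative to a co-located DMSO-only control, read with 5 µM Fluorescent Yellow dye. Each compound was tested in triplicate over seven concentrations (two-fold steps, top 1,000 or 100 μM). Spearman correlation of concentration versus ΔTma tested whether the shift was dose-responsive.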

SARS-CoV-2 NSP3 Mac1 [4] = biological target: T1, SARS-CoV-2 NSP3 Mac1; assay: biochemical; type: binding; details: for IC50: read-out: IC50; for Ki: Ki estimation from HTRF-derived IC50, Cheng-Prusoff, peptide 400nM, Kd 2.68µM, read-out: Ki***

Compound | DSF max dTma (SARS-CoV-2 NSP3 Mac1 [1]) | Refined occupancy (SARS-CoV-2 NSP3 Mac1 [2]) | HIT* (SARS-CoV-2 NSP3 Mac1 [2]) | Spearman est (compound concentration vs apparent Tm) (SARS-CoV-2 NSP3 Mac1 [3]) | DSF max dTma (SARS-CoV-2 NSP3 Mac1 [3]) | also measured
CC1C(C(=O)O)CCCN1S(=O)(=O)c1c[nH]c2ncc(Cl)cc12 (stereo not shown) [R3575, REAL300016493575] | 0.15 °C | – | – | – | – | –
O=C(Nc1ccc(C(=O)N[C@H]2c3cccc(O)c3C[C@H]2C(=O)O)cc1)NC1CC1 [Z8601] | – | – | – | – | – | displacement of the ADPr-conjugated peptide (off-target activity) (TARG1; compound at 50 µM): no displacement; displacement of the ADPr-conjugated peptide (off-target activity) (TARG1; compound at 1 mM): approximately 50%; displacement of the ADPr-conjugated peptide (off-target activity) (MacroD2; compound at 50 µM): no displacement; displacement of the ADPr-conjugated peptide (off-target activity) (MacroD2; compound at 1 mM): approximately 50%
Cc1noc(CC2CCCN(c3ncnc4[nH]c5cc(F)ccc5c34)C2)n1 (stereo not shown) [LL1_0005] | 0.6 °C | 22 | Y | 0.01 | 0.6 ˚C | 1-BDC (SARS-CoV-2 NSP3 Mac1 [2]): 0.11
O=c1[nH]nc(C2CCCN(c3ncnc4[nH]c5cc(F)ccc5c34)C2)o1 (stereo not shown) [LL1_0017] | 0.5 °C | 18 | Y | 0.18 | 0.5 ˚C | 1-BDC (PanDDA) (SARS-CoV-2 NSP3 Mac1 [2]): 0.09; Modeled? (SARS-CoV-2 NSP3 Mac1 [2]): TRUE
OCc1cn(C2CCCN(c3ncnc4[nH]ccc34)C2)nn1 (stereo not shown) [Z7864, ZINC000292637864] | 0.32 °C | – | – | – | – | –
O=C(O)CC1CN(c2ncnc3[nH]c4cc(F)ccc4c23)CCO1 (stereo not shown) [LL1_0014] | – | 22 | Y | 0.91 | 3.21 ˚C | IC50 (SARS-CoV-2 NSP3 Mac1 [4]; HTRF ADPr-peptide displacement from SARS-CoV-2 Mac1): 16 to 29 µM and 16.4 to 28.7 µM; IC50 (SARS-CoV-2 NSP3 Mac1 [4]; HTRF): 16.4 µM and 28.7 µM; Ki (SARS-CoV-2 NSP3 Mac1 [4]): 14.3 µM and 25 µM; displacement of the ADPr-conjugated peptide (off-target activity) (TARG1; compound at 1 mM): 50%; displacement of the ADPr-conjugated peptide (off-target activity) (MacroD2; compound at 1 mM): 50%; 1-BDC (SARS-CoV-2 NSP3 Mac1 [2]): 0.11; Modeled? (SARS-CoV-2 NSP3 Mac1 [2]; Echo dispense volume 40 or 80 nl): TRUE
CC1(C(=O)O)CCN(C(=O)Cc2c[nH]c3nccc(Cl)c23)C1 (stereo not shown) [F4848, FRESH00014134848] | 0.07 °C | – | – | – | – | –
O=C(O)CCC1CCCN(c2ncnc3[nH]c4cc(F)ccc4c23)C1 (stereo not shown) [LL1_0018] | 2.71 °C | 20 | Y | 0.96 | 2.71 ˚C | IC50 (SARS-CoV-2 NSP3 Mac1 [4]; HTRF): 25.8 µM; Ki (SARS-CoV-2 NSP3 Mac1 [4]): 22.4 µM; 1-BDC (PanDDA) (SARS-CoV-2 NSP3 Mac1 [2]): 0.1; Modeled? (SARS-CoV-2 NSP3 Mac1 [2]): TRUE
